# Entries after “also recorded” stand apart in the source; their conditions may differ.
# Assays:
# [1] = comparative statement among the DuPont channel blockers; cited from earlier work
# KCNQ channel = conditions: comparative statement among the DuPont channel blockers; cited from earlier work
# [2] = system: KCNQ (Kv7) potassium channels; assay: Social interaction behavior, acute PCP model of schizophrenia; format: in vivo, rats; conditions: phencyclidine administration in laboratory rodents; no dose stated
# Source text: (§1) Social interaction deficit is considered to be a negative symptom of schizophrenia and can be induced in rodents by acute PCP or Ketamine administration and can be reversed by antipsychotics. […] A cocktail mixture of XE991 and PCP dissolved in saline was used in these studies. *p<0.05 vs. Sal/Sal; +p<0.05 vs. Sal/PCP; N=25-42 rats per treatment.
# as §1, with “DMP543” for “XE991”, “40% DMSO” for “saline”, “N=10-28” for “N=25-42”, “treatment. […]” for “treatment.”
# [3] = system: KCNQ (Kv7) potassium channels; assay: Prepulse inhibition (PPI) of the startle response, acute PCP model of schizophrenia; format: in vivo, rats; conditions: for effect on deficits in prepulse inhibition produced by phencyclidine (summary statement): phencyclidine administration in laboratory rodents, no dose stated
# Source text: The startle response is produced by delivery of a sudden and intense sensory stimulus pulse (120 db sound) and can be inhibited by exposure to a weaker prepulse (62, 66, or 75 db) which is slightly above the background noise level (60 db). […] PPI has been used as a measure of sensory information processing in rodents and humans. […] A cocktail mixture of XE991 and PCP dissolved in saline was used in these studies. N=38 rats per treatment. *p<0.05 vs. Sal/Sal; +p<0.05 vs. Sal/PCP.
# (§2) Drugs. All drugs were purchased from commercial sources and dissolved in saline. […] All drug doses were nmol per side and were injected bilaterally into the specified brain region.
# [4] = system: KCNQ potassium channels in prefrontal cortex; assay: Forced delayed alternation task in a T-maze (working memory), acute PCP model, brain microinfusion; format: in vivo, rats; conditions: for effect on deficits in forced delayed alternation task performance in a T-maze produced by phencyclidine (summary statement): phencyclidine administration in laboratory rodents, no dose stated
# Method: This experimental paradigm involves the working memory, a prefrontal cortex dependent task, and is used to examine attention and memory function. This study was conducted to determine the role of KCNQ channels in PFC in regulation of memory.
# Microinjection and Behavioral Experiments. Stainless Steel cannulae were implanted bilaterally 1 mm above nucleus accumbens or implanted in prefrontal cortex. Rats were permitted a minimum of 7 days recovery from surgery. Drugs were injected using an injection needle that extended 1 mm beyond the tip of the guide cannulae. […] In experiments where two drugs were delivered into accumbens, the microinjections were separated by 15 minutes. Behavioral activity then was monitored as discussed in the Results.
# as §2
# [5] = system: KCNQ (Kv7) potassium channels; assay: Social interaction behavior, acute PCP model of schizophrenia; format: in vivo, rats; conditions: for effect of channel blocker alone on level of social interaction: 15 minutes before social interaction arena; for reversal of PCP-induced social interaction deficit: p<0.05 vs. Sal/PCP
smiles,measurement,setting,value
"O=C1c2ccccc2C(Cc2ccnc(F)c2)(Cc2ccnc(F)c2)c2ccccc21 [DMP543, 10,10-bis(2-fluoro-4-pyridinylmethyl)-9(10H)-anthracenone]",serum half-life,[1],higher serum half-life
same,potency at KCNQ channel,KCNQ channel,higher potency
same,effect on deficits in social interaction produced by phencyclidine (summary statement),[2],attenuate or fully reverse
same,effect on deficits in prepulse inhibition produced by phencyclidine (summary statement),[3],attenuate or fully reverse
same,effect on deficits in forced delayed alternation task performance in a T-maze produced by phencyclidine (summary statement),[4],attenuate or fully reverse
same,effect of channel blocker alone on level of social interaction,[5]; DMP543 0.15 mg/kg s.c. alone,did not significantly modulate
same,reversal of PCP-induced social interaction deficit,[5]; DMP543 0.15 mg/kg s.c. co-administered with PCP 1.5 mg/kg s.c. (cocktail in 40% DMSO),significantly reversed the deficit
same,reversal of PCP-induced social interaction deficit,"[5]; DMP543 0.15 mg/kg s.c. co-administered with PCP 1.5 mg/kg s.c. (cocktail in 40% DMSO), listed as DM543",reversed
"O=C1N(c2ccccc2)c2ccccc2C1(Cc1ccncc1)Cc1ccncc1 [Linopirdine, 3,3-bis(4-pyridinylmethyl)-1-phenylindolin-2-one]",effect on deficits in social interaction produced by phencyclidine (summary statement),[2],attenuate or fully reverse
same,effect on deficits in prepulse inhibition produced by phencyclidine (summary statement),[3],attenuate or fully reverse
"c1ccc(C2(N3CCCCC3)CCCCC2)cc1 [PCP, phencyclidine]",effect of PCP alone on prepulse inhibition,"[3]; PCP 1.5 mg/kg s.c., all three prepulses, p<0.05 vs. Sal/Sal",reduced the prepulse inhibition at all three prepulses; also recorded: disrupts the prepulse inhibition
same,effect of PCP alone on working memory,"[4]; PCP 3.0 mg/kg s.c. one hour before behavioral testing, trained rats, p<0.05 vs. Sal/Sal",robust and reproducible disruption of working memory
same,effect of PCP alone on social interaction time,"[5]; PCP 1.5 mg/kg s.c., 15 minutes before testing, p<0.05 vs. Sal/Sal",significant reduction in social interaction time
"O=C1c2ccccc2C(Cc2ccncc2)(Cc2ccncc2)c2ccccc21 [XE991, 10,10-bis(4-pyridinylmethyl)-9(101-1)-anthracenone]",effect on deficits in social interaction produced by phencyclidine (summary statement),[2],attenuate or fully reverse
same,effect of channel blocker alone on prepulse inhibition,"[3]; XE991 0.5 mg/kg s.c. alone, 10 minutes before startle chamber, prepulses 62, 66, 75 db",did not show any disruption of the prepulse inhibition
same,reversal of PCP-induced deficits in PPI,"[3]; XE991 0.5 mg/kg s.c. with PCP 1.5 mg/kg s.c. (cocktail in saline), 66 db prepulse, p<0.05 vs. Sal/PCP",reversed the PCP-induced deficits in PPI
same,effect on deficits in prepulse inhibition produced by phencyclidine (summary statement),[3],attenuate or fully reverse
same,effect of channel blocker alone on memory and performance in delayed alternation task,"[4]; XE991 60 nmol/1 ul/1 min, acute bilateral infusion into prefrontal cortex, alone",did not disrupt the memory and performance
same,reversal of PCP-induced working memory deficits,"[4]; XE991 60 nmol/1 μl/1 min microinfusion into PFC 5 minutes before PCP 3.0 mg/kg s.c., p<0.05 vs. Sal/PCP",reversed the PCP-induced memory deficits
same,effect on PCP-mediated working memory disruption,[4]; XE991 microinjected in the nucleus accumbens (data not shown),no effect
same,effect on deficits in forced delayed alternation task performance in a T-maze produced by phencyclidine (summary statement),[4],attenuate or fully reverse
same,effect of channel blocker alone on level of social interaction,[5]; XE991 0.5 mg/kg s.c. alone,did not significantly modulate
same,reversal of PCP-induced social interaction deficit,[5]; XE991 0.5 mg/kg s.c. co-administered with PCP 1.5 mg/kg s.c. (cocktail in saline),reversed the deficit
